Data set [1] can be described thus: Rat intravenous pharmacokinetics. It counts as in vivo. The settings on record: for MRT: iv. On the procedure: All animal housing and experimental procedures were approved by the Vanderbilt University Animal Care and Use committee and followed the guidelines set forth by the Guide for the Care and Use of Laboratory Animals. VU0542270 was formulated as a solution in ethanol, PEG400, and saline (1:4:5 v/v, respectively) at a concentration of 1 mg/mL and administered as a single 1-mg/kg IV dose (1 mL/kg) to male Sprague Dawley rats (n = 2; between 366–418 g body weights) via injection into a surgically implanted jugular vein catheter. Blood samples were collected serially from a surgically implanted carotid artery catheter in each animal over multiple postadministration time points (0.033, 0.117, 0.25, 0.5, 1, 2, 4, 7, and 24 hours) into chilled K2EDTA anticoagulant-fortified tubes and immediately placed on wet ice. The blood samples were then centrifuged [1700 relative centrifugal force (rcf), 5 minutes, 4°C] to obtain plasma samples, which were stored at −80°C until analysis by liquid chromatography tandem mass spectrometry (LC-MS/MS). The intravenous pharmacokinetic (PK) data were used for the calculation of relevant intravenous pharmacokinetic parameters [plasma clearance (CLp), volume of steady state, elimination half-life (t1/2), and mean residence time]. In vivo pharmacokinetic parameters of VU0542270 were determined from the observed individual animal time-versus-concentration data using noncompartmental analysis via WinNonlin (WNL; v.5.3, Pharsight Corp., Mountain View, CA.).
Plasma samples from the in-life phases of the studies were thawed at ambient temperature (benchtop), and then aliquots (20 µL per sample) were transferred to a 96-shallow-well (V-bottom) plate. Matrix-matched quality-control samples and a standard curve of VU0542270 (1 mg/mL DMSO stock solution) were prepared in blank rat plasma (K2EDTA treated) or blank brain homogenate via serial dilution and transferred (20 µL each) to the plate along with multiple blank plasma and brain homogenate samples. Acetonitrile (120 µL) containing internal standard (50 nM carbamazepine) was added to each well of the plate to precipitate protein. The plate was then centrifuged (4000 rcf, 5 minutes, ambient temperature), and resulting supernatants (60 µL each) were transferred to a new 96-shallow-well (V-bottom) plate containing an equal volume (60 µL per well) of water (Milli-Q purified). The plate was then sealed in preparation for LC-MS/MS analysis (see below).
Prepared samples were injected (10 µL each) onto an AB Sciex triple quad-4500 mass spectrometer system with an Agilent 1290 Infinity Binary Pump and multisampler. Analytes were separated on a reverse phase column Phenomenex Kinetex C18 (50 × 2.1 mm, 5 µm) that was thermostated at 40°C. High-pressure liquid chromatography mobile phase A was 0.5% formic acid in water (pH unadjusted); mobile phase B was 0.5% formic acid in acetonitrile (pH unadjusted). […] The column was re-equilibrated (1 minute) before the next sample injection. The total run time was 2.55 minutes, and the high-pressure liquid chromatography flow rate was 0.5 ml/min. The source temperature was set at 500°C, and mass spectral analyses were performed using a Turbo-Ion spray source in positive ionization mode (5.0-kV spray voltage) and using multiple-reaction monitoring of transitions specific for both analyte (m/z 335.7–236.7 at 35 eV) and internal standard (m/z 237.0–193.9 at 25 eV). Quantitation of VU0542270 was performed via AB Sciex Analyst software using the raw analyte:IS peak area ratios. The typical detection range for VU0542270 was 0.5 ng/mL to ≥5000 ng/mL, utilizing a quadratic equation regression with 1/x^2 weighting.

Data set [2] deals with Kir6.1- or Kir6.2-containing channels in complex with either SUR2A or SUR2B. Kind of data set: Thallium flux, Kir6.1 or Kir6.2 co-expressed with SUR2A or SUR2B in transfected HEK-293 cells. The settings on record: 3 µM, Fig. 4D. The data set is classed as cell-based. The source says: The pcDNA3.1-SUR2B plasmid was generously provided by Dr. Colin Nichols (Washington University). The pcDNA5/TO-Kir6.1 plasmid was synthesized by GenScript. Stably transfected tetracycline-regulated expression human embryonic kidney-293 (T-Rex-HEK293) cells expressing both plasmids were generated by cotransfecting cells with Lipofectamine LTX followed by antibiotic selection and clonal selection using the thallium flux assay described below. Monoclonal lines expressing robust pinacidil-activated thallium flux were selected for high KATP channel activity. T-Rex-HEK293 cells expressing Kir6.2/SUR1 were created as described previously ([Raphemot et al., 2014]). The cell culture media contained Dulbecco’s modified Eagle’s medium (Gibco, 11965-092) supplied with heat-inactivated FBS (bio-techne, Minneapolis, MN S11150H,10%), Blasticidine HCl (Gibco, A11139-03, 10 ug/mL), Penicillin-Streptomycin (Gibco, 15140-122, 2 mM), G418 Sulfate (CORNING, Corning, NY, 30-234-CR, 1 mg/mL), and Hygromycin B (Invitrogen, Carlsbad, CA, 10687-010, 250 ug/mL). […]
Quantitative thallium flux assays of Kir6.1/SUR2B activity were performed essentially as described previously for Kir6.2/SUR1 ([Raphemot et al., 2014]; [Kharade et al., 2019]). […] Dye-loaded cells were washed with assay buffer and transferred to a Panoptic Kinetic Imaging Plate Reader (Wavefront Bioscience, Franklin, TN). […]

Molecule `Cc1nc(-c2cccs2)sc1CNC(=O)Nc1cccs1` [VU0542270] gave a half-life in data set [1] (male, Sprague Dawley, plasma, 1 mg/kg, rat IV PK) of 38.4 min. In addition, in data set [1] (male, Sprague Dawley, plasma, rat, 1 mg/kg IV, read-out: CLp), the clearance stood at 17.7 mL/min/kg. Besides, the Vd in data set [1] (male, Sprague Dawley, plasma, rat, 1 mg/kg IV, read-out: Vss) came to 0.2 L/kg. Moreover, the MRT in data set [1] (male, Sprague Dawley, rat, plasma, 1 mg/kg, 1 mg/kg IV) stood at 11.4 min; in data set [1] (male, Sprague Dawley, rat, plasma, 1 mg/kg, rat IV PK) it was 10.2 min. The same molecule registered a t1/2 in data set [1] (rat, 1 mg/kg IV) of 38.4 min. The “inhibition of Kir6.1- or Kir6.2-containing channels with SUR2A or SUR2B” value in data set [2] was “inhibits”.

For orientation: half-life means the time in which the quantity being followed falls by half. Low readings indicate fast loss, high ones slow loss. For orientation: MRT means a mean duration of stay, worked out from the concentration-time curve.

Values taken from paper PMC10877733, “Discovery and Characterization of VU0542270, the First Selective Inhibitor of Vascular Kir6.1/SUR2B KATP Channels” (Molecular Pharmacology, 2024).
